Consider 14 compounds from patent US9670172B2, “Heterocyclic compounds and methods of use” (Medivation Technologies, Inc., priority 2014, dated 2017).

For one series, the system named is SREBP2. The series is described as follows: SREBP2 cleavage in HEPG2 cells (Western blot normalized to actin). In kind it is cell-based. To be noted: Homo sapiens, read-out: Average SREBP2 cleavage (% Inhibition, n = 3). Here is the method: Average SREBP2 cleavage in HEPG2 cells was measured in the presence of compounds disclosed in Table 1. HepG2 cells were seeded at 500,000 cells per well in 6-well plates in DMEM supplemented with 10% FBS. After 2 days, cells were treated with compounds (20 μM) for 1 day in DMEM without FBS. Western blots were normalized with respect to actin.
The results are shown in Table 3 as percent inhibition@20 μM, and in Table 4 as percent inhibition@5 μM.
(In western blotting, separated proteins are transferred to a membrane and probed.)

Series [1] in a line: HepG2 cell viability by MTS. Format: cell-based. The following applies: human, HepG2 cells, 3 days, DMEM without FBS, MTS, read-out: Average Viability (% Inhibition, n = 3). Here is the method:
For viability measurements, HepG2 cells were seeded at 5,000 cells per well in 96-well plates in DMEM supplemented with 10% FBS. After 1 day in culture, cells were treated with compounds (20 μM & 5 μM) for 3 days in DMEM without FBS. Viability was measured by MTS. Treatment with compounds (20 μM & 5 μM) was carried out in medium without FBS, and viability was measured by MTS. […]

Series [2] can be described thus: PK parameters for representative compounds (i.v. and p.o.). The following applies: in vivo; for half-life: read-out: Terminal t1/2 (converted). The source says: Standard PK parameters were collected in Mouse and Dog for Compound #37 in mouse (FIG. 4A) and dog (FIG. 4B).
[3] abbreviates: 24 h, 20 μM, HepG2 cells, 1 day, DMEM without FBS.

The structures appear in SMILES notation. Like-named read-outs stand apart in the source and are kept apart here.

The inhibition is the relative decrease from the control value, in per cent. Usually AUC(0-t) stands for exposure summed from dosing to a finite time, without extrapolation to infinity. Read a high AUC(0-t) as more exposure. The Cmax is the peak of the concentration-time curve. Usually Tmax stands for the time from dosing to the highest level. For `O=S(=O)(Nc1ccc(-c2csc(-c3ccc4c(c3)CCO4)n2)c(Cl)c1)C(F)(F)F` [Compound 82, N-{3-chloro-4-[2-(2,3-dihydro-1-benzofuran-5-yl)-1,3-thiazol-4-yl]phenyl}-1,1,1-trifluoromethanesulfonamide], the inhibition at 5 µM in the series on SREBP2 (HepG2 cells) turned out to be 77%. Further, the cytotoxicity at 3 days, 5 μM in series [1] was found to be 82%. In series [2] (iv, i.v. @ 2 mg/kg), this compound gave an AUC(0-t) of 25.4 µM·h, a Cmax of 12.6 µM, a Vd of 0.719 L/kg and a clearance of 2.28 mL/min/kg. In series [2] (iv, i.v. @ 2 mg/kg), the half-life was 3.64 h. In series [2] (po, p.o. @ 10 mg/kg), the AUC(0-t) amounted to 175 µM·h, the highest level (Cmax) was 25.8 µM, the Tmax worked out at 4 h and the bioavailability is 138%. The half-life in series [2] (po, p.o. @ 10 mg/kg) was more than 8 h.

`O=S(=O)(Nc1ccc(-c2csc(-c3cccc(N4CCCCC4)c3)n2)c(Cl)c1)C(F)(F)F` [Compound 88, N-(3-chloro-4-{2-[3-(piperidin-1-yl)phenyl]-1,3-thiazol-4-yl}phenyl)-1,1,1-trifluoromethanesulfonamide]: the inhibition at 5 µM in the series on SREBP2 (HepG2 cells) was 90%. Also, the cytotoxicity at 3 days, 5 μM in series [1] turned out to be 19%. In series [2] (iv, i.v. @ 2 mg/kg), this compound gave an exposure AUC(0-t) of 10.6 µM·h, a Cmax of 3.44 µM, a Vd of 1.45 L/kg and a clearance of 5 mL/min/kg. The half-life in series [2] (iv, i.v. @ 2 mg/kg) is 3.35 h. Further, in series [2] (po, p.o. @ 10 mg/kg), the AUC(0-t) turned out to be 51.5 µM·h, the highest level (Cmax) was 8.41 µM, the Tmax is 2 h and the bioavailability was found to be 96.8%. Further, the half-life in series [2] (po, p.o. @ 10 mg/kg) is more than 8 h.

In the case of `O=S(=O)(Nc1ccc(-c2csc(-c3cccc4ccccc34)n2)c(Cl)c1)C(F)(F)F` [Compound 71, N-{3-chloro-4-[2-(naphthalen-1-yl)-1,3-thiazol-4-yl]phenyl}-1,1,1-trifluoromethanesulfonamide], the inhibition at 5 µM in the series with SREBP2 (HepG2 cells) worked out at 77%. Further, the cytotoxicity at 3 days, 5 μM in series [1] is 97%. In series [2] (iv, i.v. @ 2 mg/kg), this compound gave an AUC(0-t) of 13.6 µM·h, a Cmax of 3.57 µM, a Vd of 1.27 L/kg and a clearance of 4.18 mL/min/kg. In series [2] (iv, i.v. @ 2 mg/kg), the half-life is 3.5 h. Besides, in series [2] (po, p.o. @ 10 mg/kg), the AUC(0-t) was determined as 51.5 µM·h, the concentration peaked (Cmax) at 7.57 µM, the Tmax came out at 4 h and the bioavailability came to 75.9%. For the same compound, the half-life in series [2] (po, p.o. @ 10 mg/kg) was more than 8 h.

In the case of `O=S(=O)(Nc1ccc(-c2csc(-c3ccnc(CC4CCCCC4)c3)n2)c(Cl)c1)C(F)(F)F` [Compound 70, N-(3-chloro-4-{2-[2-(cyclohexylmethyl)pyridin-4-yl]-1,3-thiazol-4-yl}phenyl)-1,1,1-trifluoromethanesulfonamide], the inhibition at 5 µM with SREBP2 (HepG2 cells) was 73%. For the same compound, in series [1], the cytotoxicity at 3 days, 5 μM stood at 100%. In series [2] (iv, i.v. @ 2 mg/kg), this compound had an AUC(0-t) of 2.2 µM·h, a Cmax of 4 µM, a Vd of 5.22 L/kg and a clearance of 54.7 mL/min/kg. Moreover, the half-life in series [2] (iv, i.v. @ 2 mg/kg) is 1.1 h. Also, in series [2] (po, p.o. @ 10 mg/kg), the AUC(0-t) came to 5.19 µM·h, the Cmax was 2.2 µM, the Tmax was 0.5 h and the bioavailability was 46.4%. In addition, the half-life in series [2] (po, p.o. @ 10 mg/kg) was 1.04 h.

With `O=S(=O)(Nc1ccc(-c2csc(-c3ccnc(N4CCCCC4)c3)n2)c(Cl)c1)C(F)(F)F` [Compound 85, N-(3-chloro-4-{2-[2-(piperidin-1-yl)pyridin-4-yl]-1,3-thiazol-4-yl}phenyl)-1,1,1-trifluoromethanesulfonamide], in the series on SREBP2 (HepG2 cells), the inhibition at 5 µM was 82%. For the same compound, in series [1], the cytotoxicity at 3 days, 5 μM came to 93%. In series [2] (iv, i.v. @ 2 mg/kg), the AUC(0-t) was determined as 0.655 µM·h, the Cmax was 0.241 µM, the Vd was 27.3 L/kg and the clearance is 77.2 mL/min/kg. Besides, the half-life in series [2] (iv, i.v. @ 2 mg/kg) is 4.08 h. In series [2] (po, p.o. @ 10 mg/kg), the AUC(0-t) came to 2.27 µM·h, the highest level (Cmax) was 0.45 µM, the Tmax turned out to be 2 h and the bioavailability was determined as 69.3%. Further, the half-life in series [2] (po, p.o. @ 10 mg/kg) was more than 8 h.

As to `O=S(=O)(Nc1ccc(-c2csc(-c3ccnc(Cc4ccccc4)c3)n2)c(Cl)c1)C(F)(F)F` [Compound 60, N-{4-[2-(2-benzylpyridin-4-yl)-1,3-thiazol-4-yl]-3-chlorophenyl}-1,1,1-trifluoromethanesulfonamide], in the series with SREBP2 (setting [3]), the inhibition at 20 µM worked out at 99%. In addition, in series [1], the cytotoxicity at 3 days, 20 μM was found to be 100%. In series [2] (iv, i.v. @ 2 mg/kg), the AUC(0-t) stood at 12.6 µM·h, the concentration peaked (Cmax) at 3.38 µM, the Vd amounted to 1.28 L/kg and the clearance is 4.8 mL/min/kg. The half-life in series [2] (iv, i.v. @ 2 mg/kg) was 3.08 h. Also, in series [2] (po, p.o. @ 10 mg/kg), the AUC(0-t) turned out to be 57.1 µM·h, the Cmax came out at 6.58 µM, the Tmax came to 4 h and the bioavailability worked out at 90.2%. Further, the half-life in series [2] (po, p.o. @ 10 mg/kg) was more than 8 h.

With `O=S(=O)(Nc1ccc(-c2csc(-c3ccnc(CCC(F)(F)F)c3)n2)c(Cl)c1)C(F)(F)F` [Compound 64, N-(3-chloro-4-{2-[2-(3,3,3-trifluoropropyl)pyridin-4-yl]-1,3-thiazol-4-yl}phenyl)-1,1,1-trifluoromethanesulfonamide], the inhibition at 20 µM in the series with SREBP2 (setting [3]) came out at 97%. The cytotoxicity at 3 days, 20 μM in series [1] is 100%. In series [2] (iv, i.v. @ 2 mg/kg), this compound showed an AUC(0-t) of 38.5 µM·h, a Cmax of 7.13 µM, a Vd of 1.95 L/kg and a clearance of 0.917 mL/min/kg. In series [2] (po, p.o. @ 10 mg/kg), the AUC(0-t) worked out at 526 µM·h, the peak level (Cmax) was 32.1 µM, the Tmax is 24 h and the bioavailability stood at 273%. Moreover, in series [2] (po, p.o. @ 10 mg/kg), the half-life is more than 8 h.

Turning to `O=S(=O)(Nc1ccc(-c2csc(-c3ccc(F)cc3CN3CCCC3)n2)c(Cl)c1)C(F)(F)F` [Compound 91, N-(3-chloro-4-{2-[4-fluoro-2-(pyrrolidin-1-ylmethyl)phenyl]-1,3-thiazol-4-yl}phenyl)-1,1,1-trifluoromethanesulfonamide], in the series with SREBP2 (HepG2 cells), the inhibition at 5 µM was 16%. In series [1], the cytotoxicity at 3 days, 5 μM is 4%.

As to `CCCc1cc(-c2nc(-c3cccc(NS(=O)(=O)C(F)(F)F)c3)cs2)ccn1` [Compound 2, 1,1,1-trifluoro-N-(3-(2-(2-propylpyridin-4-yl)thiazol-4-yl)phenyl)methanesulfonamide], the inhibition at 20 µM with SREBP2 (HepG2, 24 h) is 73%. The cytotoxicity at 3 days, 20 μM in series [1] came to 80.5%.

For `O=S(=O)(Nc1ccc(-c2csc(-c3cccc4[nH]ccc34)n2)c(Cl)c1)C(F)(F)F` [Compound 80, N-{3-chloro-4-[2-(1H-indol-4-yl)-1,3-thiazol-4-yl]phenyl}-1,1,1-trifluoromethanesulfonamide], in the series on SREBP2 (HepG2 cells), the inhibition at 5 µM was determined as 90%. Besides, in series [1], the cytotoxicity at 3 days, 5 μM stood at 86%. In series [2] (iv, i.v. @ 2 mg/kg), this compound gave an AUC(0-t) of 8.94 µM·h, a Cmax of 3.63 µM, a Vd of 1.72 L/kg and a clearance of 70.8 mL/min/kg. Moreover, the half-life in series [2] (iv, i.v. @ 2 mg/kg) was 2.8 h. Also, in series [2] (po, p.o. @ 10 mg/kg), the AUC(0-t) came out at 130 µM·h, the Cmax was 20.6 µM, the Tmax is 4 h and the bioavailability is 291%. Besides, in series [2] (po, p.o. @ 10 mg/kg), the half-life was more than 8 h.

Regarding `O=S(=O)(Nc1ccc(-c2csc(-c3ccccc3CO)n2)c(Cl)c1)C(F)(F)F` [Compound 84, N-(3-chloro-4-{2-[2-(hydroxymethyl)phenyl]-1,3-thiazol-4-yl}phenyl)-1,1,1-trifluoromethanesulfonamide], the inhibition at 5 µM with SREBP2 (HepG2 cells) came out at 20%. Further, the cytotoxicity at 3 days, 5 μM in series [1] worked out at 18%.

Consider `CN1CCN(c2cc(-c3nc(-c4ccc(NS(=O)(=O)C(F)(F)F)cc4Cl)cs3)ccn2)CC1` [Compound 76, N-(3-chloro-4-{2-[2-(4-methylpiperazin-1-yl)pyridin-4-yl]-1,3-thiazol-4-yl}phenyl)-1,1,1-trifluoromethanesulfonamide], for which the inhibition at 5 µM in the series with SREBP2 (HepG2 cells) was found to be 7%. In series [1], the cytotoxicity at 3 days, 5 μM was 3%.

For `O=S(=O)(Nc1ccc(-c2csc(-c3c[nH]c4ccccc34)n2)c(Cl)c1)C(F)(F)F` [Compound 93, N-{3-chloro-4-[2-(1H-indol-3-yl)-1,3-thiazol-4-yl]phenyl}-1,1,1-trifluoromethanesulfonamide], the inhibition at 5 µM with SREBP2 (HepG2 cells) was determined as 28%. Besides, in series [1], the cytotoxicity at 3 days, 5 μM stood at 82%.

With `O=S(=O)(Nc1ccc(-c2csc(-c3ccnc4ccccc34)n2)c(Cl)c1)C(F)(F)F` [Compound 94, N-[3-chloro-4-[2-(4-quinolyl)thiazol-4-yl]phenyl]-1,1,1-trifluoro-methanesulfonamide], the inhibition at 5 µM in the series with SREBP2 (HepG2 cells) was determined as 35%. Further, the cytotoxicity at 3 days, 5 μM in series [1] was 84%.
